What is called IC50 is the concentration at which inhibition is half-maximal.

Holding throughout (format): cell-based
The subject of one experiment is A431 (EGFR-WT). In words: Proliferation experiment, A431 cell line (CellTiter-Glo). To be noted: Homo sapiens, A-431; A431 cells, cultured for 72 hrs with compound, CTG analysis.
For experiment [1], the target named is Ba/F3 EGFR-V769_D770insASV (Homo sapiens, UniProt P00533, DUP767-769, cells depend on it). As to the kind of experiment: Proliferation experiment of Ba/F3 cell line, EGFR-V769_D770insASV (CellTiter-Glo). To be noted: cultured for 72 hrs with compound, CTG analysis, read-out: Ba/F3 EGFR-V769_D770insASV IC50. A digest of the protocol: (§1)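 […] Ba/F3 cells expressing EGFR insertion mutants treated 72 h at 37 °C with 9 concentrations, 3.16-fold dilutions, top 10 μM, 0.1% DMSO, in triplicate. Viability by CellTiter-Glo luminescence with T0 reference plate; IC50 (nM) from non-linear dose-response fit.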
Chain of Ba/F3 EGFR-V769_D770insASV (P00533 with tags, fused parts or gaps DUP767-769): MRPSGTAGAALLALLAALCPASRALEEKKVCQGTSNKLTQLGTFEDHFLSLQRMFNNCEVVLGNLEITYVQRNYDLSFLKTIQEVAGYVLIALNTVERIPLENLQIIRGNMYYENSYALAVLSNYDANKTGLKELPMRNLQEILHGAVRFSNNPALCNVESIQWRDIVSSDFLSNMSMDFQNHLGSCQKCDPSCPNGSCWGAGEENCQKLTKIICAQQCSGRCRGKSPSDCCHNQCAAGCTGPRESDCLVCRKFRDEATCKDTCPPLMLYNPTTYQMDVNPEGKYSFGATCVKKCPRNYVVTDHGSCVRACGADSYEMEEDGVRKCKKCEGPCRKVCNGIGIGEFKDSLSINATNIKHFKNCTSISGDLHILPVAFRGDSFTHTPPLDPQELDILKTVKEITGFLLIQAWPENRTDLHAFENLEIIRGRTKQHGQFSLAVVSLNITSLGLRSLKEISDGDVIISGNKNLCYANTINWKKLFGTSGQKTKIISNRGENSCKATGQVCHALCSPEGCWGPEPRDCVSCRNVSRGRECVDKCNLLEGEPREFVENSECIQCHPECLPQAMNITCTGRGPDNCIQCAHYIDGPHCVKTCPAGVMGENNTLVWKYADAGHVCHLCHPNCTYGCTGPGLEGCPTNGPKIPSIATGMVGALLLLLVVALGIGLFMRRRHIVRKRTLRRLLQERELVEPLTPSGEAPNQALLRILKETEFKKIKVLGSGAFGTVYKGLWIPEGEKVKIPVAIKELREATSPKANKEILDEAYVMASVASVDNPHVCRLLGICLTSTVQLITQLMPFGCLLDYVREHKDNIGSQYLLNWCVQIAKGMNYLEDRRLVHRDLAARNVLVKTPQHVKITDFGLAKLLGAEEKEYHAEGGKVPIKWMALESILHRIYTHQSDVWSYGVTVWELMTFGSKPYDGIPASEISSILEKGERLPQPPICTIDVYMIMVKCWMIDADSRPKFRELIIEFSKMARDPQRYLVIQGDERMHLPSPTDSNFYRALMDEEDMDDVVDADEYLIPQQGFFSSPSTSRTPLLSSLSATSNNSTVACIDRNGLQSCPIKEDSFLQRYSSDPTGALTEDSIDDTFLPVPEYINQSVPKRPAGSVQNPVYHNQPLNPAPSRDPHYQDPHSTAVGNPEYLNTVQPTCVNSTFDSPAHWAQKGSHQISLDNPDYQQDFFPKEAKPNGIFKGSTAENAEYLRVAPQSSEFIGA
A general note: In ATP-based viability assays light output follows the ATP content of the culture.

In experiment [2] the target is Ba/F3 EGFR-D770-N771ins_SVD (Homo sapiens, UniProt P00533, DUP768-770, cells depend on it). In words: Proliferation experiment of Ba/F3 cell line, EGFR-D770-N771ins_SVD (CellTiter-Glo). To be noted: cultured for 72 hrs with compound, CTG analysis, read-out: Ba/F3 EGFR-D770-N771ins_SVD IC50. A digest of the protocol: as §1
Chain of Ba/F3 EGFR-D770-N771ins_SVD (P00533 with tags, fused parts or gaps DUP768-770): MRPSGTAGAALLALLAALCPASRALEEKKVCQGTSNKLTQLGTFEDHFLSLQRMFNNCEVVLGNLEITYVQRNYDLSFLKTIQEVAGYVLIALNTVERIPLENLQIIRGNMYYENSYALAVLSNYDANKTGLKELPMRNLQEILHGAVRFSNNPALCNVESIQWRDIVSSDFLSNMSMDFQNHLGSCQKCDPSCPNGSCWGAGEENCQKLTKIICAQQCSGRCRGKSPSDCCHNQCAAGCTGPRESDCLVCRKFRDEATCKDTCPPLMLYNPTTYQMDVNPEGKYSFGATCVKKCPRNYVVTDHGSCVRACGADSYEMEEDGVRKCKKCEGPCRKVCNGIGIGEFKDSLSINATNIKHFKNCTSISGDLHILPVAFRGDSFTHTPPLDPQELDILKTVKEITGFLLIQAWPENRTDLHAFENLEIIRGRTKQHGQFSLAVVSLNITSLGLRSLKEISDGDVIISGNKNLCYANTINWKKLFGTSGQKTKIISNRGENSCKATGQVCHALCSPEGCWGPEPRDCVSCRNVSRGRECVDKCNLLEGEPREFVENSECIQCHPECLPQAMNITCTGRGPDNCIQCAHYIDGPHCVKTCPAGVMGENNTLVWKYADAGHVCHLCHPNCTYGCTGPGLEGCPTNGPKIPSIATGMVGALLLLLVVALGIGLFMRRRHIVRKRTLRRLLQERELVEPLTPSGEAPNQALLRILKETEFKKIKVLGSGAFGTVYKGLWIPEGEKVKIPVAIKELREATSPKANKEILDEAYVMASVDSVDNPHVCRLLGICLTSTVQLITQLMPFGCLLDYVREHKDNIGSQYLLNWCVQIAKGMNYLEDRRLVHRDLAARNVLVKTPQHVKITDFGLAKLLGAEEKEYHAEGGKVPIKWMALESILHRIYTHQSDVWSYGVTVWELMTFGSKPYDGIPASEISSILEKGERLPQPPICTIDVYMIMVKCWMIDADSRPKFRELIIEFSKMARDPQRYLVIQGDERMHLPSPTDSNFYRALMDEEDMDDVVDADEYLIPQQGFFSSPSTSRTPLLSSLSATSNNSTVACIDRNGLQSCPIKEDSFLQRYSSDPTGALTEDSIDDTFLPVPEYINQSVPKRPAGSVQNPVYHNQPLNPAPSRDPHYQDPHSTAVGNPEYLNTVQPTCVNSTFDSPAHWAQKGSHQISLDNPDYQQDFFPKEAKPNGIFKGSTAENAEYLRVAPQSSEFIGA

`C=CC(=O)Nc1cc2c(Nc3ccnc(-c4ccccc4F)c3)ncnc2cc1O[C@@H]1CCN(C2CCN(C)CC2)C1` [Example 116, (R)-N-(4-((2-(2-fluorophenyl)pyridin-4-yl)amino)-7-((1-(1-methylpiperidin-4-yl)pyrrolidin-3-yl)oxy)quinazolin-6-yl)acrylamide]: in the experiment with A431 (EGFR-WT), the IC50 is 142 nM. The figures for the GI50 in experiment [1] and in experiment [2] were 3.4 nM and 3 nM, respectively.

Consider `C=CC(=O)Nc1cc2c(Nc3cccc(-c4ccc(F)cc4F)c3)ncnc2cc1OCCN1CCC(F)(F)C1` [Example 19, N-(4-((2′,4′-difluoro-[1,1′-biphenyl]-3-yl)amino)-7-(2-(3,3-difluoropyrrolidin-1-yl)ethoxy)quinazolin-6-yl)acrylamide], for which the IC50 in the experiment on A431 (EGFR-WT) was 597 nM. In addition, the GI50 came out at 177 nM in experiment [1] and 70.5 nM in experiment [2].

As for `C=C(F)C(=O)Nc1cc2c(Nc3ccnc(-c4ccccc4F)c3)ncnc2cc1O[C@@H]1CCN(C)C1` [Example 66, (R)-2-fluoro-N-(4-((2-(2-fluorophenyl)pyridin-4-yl)amino)-7-((1-methylpyrrolidin-3-yl)oxy)quinazolin-6-yl)acrylamide], in the experiment on A431 (EGFR-WT), the 50% inhibitory concentration (IC50) amounted to 10.2 nM. Besides, the GI50 stood at 6.5 nM in experiment [1] and 5.9 nM in experiment [2].

As to `C=CC(=O)Nc1cc2c(Nc3cccc(-c4ccccc4F)c3)ncnc2cc1OCCCN1CCN(C)CC1` [Example 46, N-(4-((2′-fluoro-[1,1′-biphenyl]-3-yl)amino)-7-(3-(4-methylpiperazin-1-yl)propoxy)quinazolin-6-yl)acrylamide], the IC50 in the experiment with A431 (EGFR-WT) came to 120 nM. The figures for the GI50 in experiment [1] and in experiment [2] were 15.8 nM and 11.9 nM, respectively.

As to `C=CC(=O)Nc1cc2c(Nc3ccnc(-c4c(F)cccc4F)c3)ncnc2cc1O[C@@H]1CCN(C)C1` [Example 76, (R)-N-(4-((2-(2,6-difluorophenyl)pyridin-4-yl)amino)-7-((1-methylpyrrolidin-3-yl)oxy)quinazolin-6-yl)acrylamide], the IC50 in the experiment on A431 (EGFR-WT) worked out at 73.2 nM. For the same compound, the figures for the GI50 in experiment [1] and in experiment [2] were 6.4 nM and 2.9 nM, respectively.

With `C=CC(=O)Nc1cc2c(Nc3ccc(F)c(-c4ccccc4)c3)ncnc2cc1OCCCN1CCOCC1` [Example 47, N-(4-((6-fluoro-[1,1′-biphenyl]-3-yl)amino)-7-(3-morpholinopropoxy)quinazolin-6-yl)acrylamide], the IC50 in the experiment on A431 (EGFR-WT) is 190 nM. The results for the GI50 in experiment [1] and in experiment [2] were 41.4 nM and 29.5 nM, respectively.

As to `C=C(F)C(=O)Nc1cc2c(Nc3ccnc(-c4ccccc4F)c3)ncnc2cc1F` [Example 93, 2-fluoro-N-(7-fluoro-4-((2-(2-fluorophenyl)pyridin-4-yl)amino)quinazolin-6-yl)acrylamide], the IC50 in the experiment with A431 (EGFR-WT) was found to be 877 nM. Also, the values for the GI50 in experiment [1] and in experiment [2] were 51.1 nM and 14.5 nM, respectively.

Take `C=C(F)C(=O)Nc1cc2c(Nc3ccnc(-c4ccccc4F)c3)ncnc2cc1OC1CC1` [Example 90, N-(7-cyclopropoxy-4-((2-(2-fluorophenyl)pyridin-4-yl)amino)quinazolin-6-yl)-2-fluoroacrylamide]: the half-maximal inhibitory concentration (IC50) in the experiment with A431 (EGFR-WT) is 461 nM. Also, the GI50 in experiment [1] stood at 35.8 nM; in experiment [2] it was 11.9 nM.

Regarding `C=CC(=O)Nc1cc2c(Nc3ccnc(-c4ccccc4F)c3)ncnc2cc1OC` [Example 82, N-(4-((2-(2-fluorophenyl)pyridin-4-yl)amino)-7-methoxyquinazolin-6-yl)acrylamide], the IC50 with A431 (EGFR-WT) turned out to be 624 nM. For the same compound, the GI50 in experiment [1] was found to be 2.6 nM; in experiment [2], 1.7 nM.

Take `C=CC(=O)Nc1cc2c(Nc3ccnc(-c4ccccc4F)c3)ncnc2cc1O[C@@H]1CCN(CCO)C1` [Example 112, (R)—N-(4-((2-(2-fluorophenyl)pyridin-4-yl)amino)-7-((1-(2-hydroxyethyl)pyrrolidin-3-yl)oxy)quinazolin-6-yl)acrylamide]: the IC50 in the experiment with A431 (EGFR-WT) is 89.3 nM. The GI50 was found to be 3.6 nM in experiment [1] and 1.4 nM in experiment [2].

For `C=CC(=O)Nc1cc2c(Nc3ccc(F)c(-c4ccccn4)c3)ncnc2cc1OCCCN1CCN(C)CC1` [Example 50, N-(4-((4-fluoro-3-(pyridin-2-yl)phenyl)amino)-7-(3-(4-methylpiperazin-1-yl)propoxy)quinazolin-6-yl)acrylamide], the IC50 in the experiment on A431 (EGFR-WT) was 48 nM. Moreover, the results for the GI50 in experiment [1] and in experiment [2] were 37.9 nM and 23.3 nM, respectively.

On to `C=CC(=O)Nc1cc2c(Nc3cccc(-c4c(F)cccc4F)c3)ncnc2cc1OCCCN1CCN(C2CC2)CC1` [Example 29, N-(7-(3-(4-cyclopropylpiperazin-1-yl)propoxy)-4-((2′,6′-difluoro-[1,1′-biphenyl]-3-yl)amino)quinazolin-6-yl)acrylamide], for which the half-inhibitory concentration (IC50) in the experiment on A431 (EGFR-WT) was 51.8 nM. The GI50 is 44.6 nM in experiment [1] and 37 nM in experiment [2].

Take `C=CC(=O)Nc1cc2c(Nc3cncc(-c4ccccc4F)c3)ncnc2cc1O[C@@H]1CCN(C)C1` [Example 63, (R)-N-(4-((5-(2-fluorophenyl)pyridin-3-yl)amino)-7-((1-methylpyrrolidin-3-yl)oxy)quinazolin-6-yl)acrylamide]: in the experiment with A431 (EGFR-WT), the IC50 was determined as 972 nM. Moreover, the figures for the GI50 in experiment [1] and in experiment [2] were 38.1 nM and 14.1 nM, respectively.

On to `C=CC(=O)Nc1cc2c(Nc3cccc(-c4c(F)cccc4F)c3)ncnc2cc1OCCCN1CCN(C(C)C)CC1` [Example 22, N-(4-((2′,6′-difluoro-[1,1′-biphenyl]-3-yl)amino)-7-(3-(4-isopropylpiperazin-1-yl)propoxy)quinazolin-6-yl)acrylamide], for which the IC50 in the experiment on A431 (EGFR-WT) came out at 270 nM. For the same compound, the GI50 was determined as 30.6 nM in experiment [1] and 13.7 nM in experiment [2].

As to `C=CC(=O)Nc1cc2c(Nc3ccc(F)c(-c4ccc(F)cc4)c3)ncnc2cc1OCCCN1CCN(C)CC1` [Example 42, N-(4-((4′,6-difluoro-[1,1′-biphenyl]-3-yl)amino)-7-(3-(4-methylpiperazin-1-yl)propoxy)quinazolin-6-yl)acrylamide], the IC50 with A431 (EGFR-WT) came out at 287 nM. The GI50 is 55.6 nM in experiment [1] and 31.8 nM in experiment [2].

With `C=CC(=O)Nc1cc2c(Nc3ccnc(-c4ccccc4F)c3)ncnc2cc1O[C@@H]1CCN(CC)C1` [Example 124, (R)-N-(7-((1-ethylpyrrolidin-3-yl)oxy)-4-((2-(2-fluorophenyl)pyridin-4-yl)amino)quinazolin-6-yl)acrylamide], in the experiment with A431 (EGFR-WT), the IC50 turned out to be 104 nM. The GI50 is 9.1 nM in experiment [1] and 2.9 nM in experiment [2].

With `C=C(F)C(=O)Nc1cc2c(Nc3ccnc(-c4ccccc4F)c3)ncnc2cc1OC` [Example 86, 2-fluoro-N-(4-((2-(2-fluorophenyl)pyridin-4-yl)amino)-7-methoxyquinazolin-6-yl)acrylamide], the half-maximal inhibitory concentration (IC50) with A431 (EGFR-WT) came to 316 nM. The figures for the GI50 in experiment [1] and in experiment [2] were 5.1 nM and 3.3 nM, respectively.

Turning to `C=CC(=O)Nc1cc2c(Nc3cc(-c4ccc(F)cc4F)ccc3F)ncnc2cc1OCCCN1CCN(C)CC1` [Example 20, N-(7-(3-(4-methylpiperazin-1-yl)propoxy)-4-((2′,4,4′-trifluoro-[1,1′-biphenyl]-3-yl)amino)quinazolin-6-yl)acrylamide], the IC50 in the experiment on A431 (EGFR-WT) turned out to be 252 nM. The GI50 in experiment [1] came to 53.9 nM; in experiment [2] it was 36.5 nM.

As for `C=CC(=O)Nc1cc2c(Nc3cncc(-c4ccccc4F)c3)ncnc2cc1OCCCN1CCN(C)CC1` [Example 59, N-(4-((5-(2-fluorophenyl)pyridin-3-yl)amino)-7-(3-(4-methylpiperazin-1-yl)propoxy)quinazolin-6-yl)acrylamide], the IC50 in the experiment with A431 (EGFR-WT) came out at 226 nM. The GI50 was determined as 11.2 nM in experiment [1] and 4.2 nM in experiment [2].

With `C=CC(=O)Nc1cc2c(Nc3ccnc(-c4ccccc4F)c3)ncnc2cc1OCC` [Example 83, N-(4-((2-(2-fluorophenyl)pyridin-4-yl)amino)-7-ethoxyquinazolin-6-yl)acrylamide], in the experiment with A431 (EGFR-WT), the IC50 was 820 nM. The GI50 in experiment [1] came out at 7.5 nM; in experiment [2] it was 3.3 nM.

Regarding `C=CC(=O)Nc1cc2c(Nc3ccnc(-c4ccccc4F)c3)ncnc2cc1OCCN1CCOCC1` [Example 68, N-(4-((2-(2-fluorophenyl)pyridin-4-yl)amino)-7-(2-morpholinoethoxy)quinazolin-6-yl)acrylamide], the IC50 with A431 (EGFR-WT) worked out at 19.3 nM. Besides, the GI50 in experiment [1] came out at 2.5 nM; in experiment [2], 1.3 nM.

As for `C=CC(=O)Nc1cc2c(Nc3cccc(-c4c(F)cccc4F)c3)ncnc2cc1OCCCN1CCN(CC)CC1` [Example 28, N-(4-((2′,6′-difluoro-[1,1′-biphenyl]-3-yl)amino)-7-(3-(4-ethylpiperazin-1-yl)propoxy)quinazolin-6-yl)acrylamide], the half-maximal inhibitory concentration (IC50) in the experiment with A431 (EGFR-WT) was determined as 362 nM. Moreover, the values for the GI50 in experiment [1] and in experiment [2] were 21 nM and 22.6 nM, respectively.

Regarding `C=CC(=O)Nc1cc2c(Nc3ccnc(-c4ccccc4F)c3)ncnc2cc1OCCCN1CCN(CCOC)CC1` [Example 123, N-(4-((2-(2-fluorophenyl)pyridin-4-yl)amino)-7-(3-(4-(2-methoxyethyl)piperazin-1-yl)propoxy)quinazolin-6-yl)acrylamide], the IC50 with A431 (EGFR-WT) was 20.5 nM. Besides, the GI50 stood at 2.4 nM in experiment [1] and 1.6 nM in experiment [2].

For the compound `C=CC(=O)Nc1cc2c(Nc3cccc(-c4c(F)cc(F)cc4F)c3)ncnc2cc1OCCCN1CCOCC1` [Example 25, N-(7-(3-morpholinopropoxy)-4-((2′,4′,6′-trifluoro-[1,1′-biphenyl]-3-yl)amino)quinazolin-6-yl)acrylamide], in the experiment on A431 (EGFR-WT), the IC50 turned out to be 352 nM. For the same compound, the GI50 in experiment [1] amounted to 106 nM; in experiment [2], 33.9 nM.

Values taken from patent publication US12649727B2, “EFGR inhibitor, preparation method therefor and application thereof” (Abbisko Therapeutics Co., Ltd, priority 2020, dated 2026).
